Read-outs that look alike come from different tables or passages of the source.
How the values were obtained:
[1] = tested on: primary multiple myeloma cells from patients' bone marrow; assay: Proliferation of primary MM cells; format: cell-based, human; conditions: read-out: IC50 Proliferation
[2] = tested on: T80-Hras ovarian cells; assay: MTT cell viability assay; format: cell-based, human; conditions: read-out: IC50 cell viability (MTT)
[3] = tested on: A549 human lung tumors; assay: A549 xenograft in nude mice; format: in vivo; conditions: A549 s.c. xenograft, 1 mpk i.p. 2x weekly; for average tumor size: start ~200 mm^3, 16 days
[4] = tested on: all cancer and non-transformed cell lines except RPMI-8226; assay: MTT cell viability assay, panel of cancer and non-transformed cell lines; format: cell-based; conditions: Homo sapiens, RPMI-8226, 24 h, read-out: IC50 cell viability (MTT)
[5] = biological target: tumor PGPH activity of the proteasome (Homo sapiens, UniProt P28072); assay: Proteasome activity in A549 tumor lysates after in vivo treatment, PGPH; parameters: species or system nude mice; conditions: A549 tumors, 1 mpk i.p., 2 h after last injection
[6] = tested on: MCF-7 human breast tumors; assay: MCF-7 xenograft in nude mice; format: in vivo; conditions: MCF-7 s.c. xenograft, 1 mpk i.p. 2x weekly; for average tumor size: start ~200 mm^3, 16 days
[7] = biological target: CT-L activity of purified 20S proteasome (Oryctolagus cuniculus, UniProt G1SU71+G1T4Q9); assay: Proteolytic activity of purified 20S proteasome, CT-L; format: biochemical, rabbit
Sequence of CT-L activity of purified 20S proteasome (G1T4Q9 60-263): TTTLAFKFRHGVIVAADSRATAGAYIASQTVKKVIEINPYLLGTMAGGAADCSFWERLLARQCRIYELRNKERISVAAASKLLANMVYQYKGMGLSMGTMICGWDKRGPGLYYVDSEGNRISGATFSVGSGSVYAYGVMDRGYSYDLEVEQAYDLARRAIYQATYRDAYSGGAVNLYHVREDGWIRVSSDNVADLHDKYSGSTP
Sequence of CT-L activity of purified 20S proteasome (G1SU71 29-241): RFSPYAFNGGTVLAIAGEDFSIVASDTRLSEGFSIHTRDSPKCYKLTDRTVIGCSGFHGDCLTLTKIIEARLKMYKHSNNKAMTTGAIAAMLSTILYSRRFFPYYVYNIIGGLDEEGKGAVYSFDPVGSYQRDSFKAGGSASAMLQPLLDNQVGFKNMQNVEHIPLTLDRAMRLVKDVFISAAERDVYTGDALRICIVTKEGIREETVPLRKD

[8] = biological target: tumor T-L activity of the proteasome (Homo sapiens, UniProt Q99436); assay: Proteasome activity in A549 tumor lysates after in vivo treatment, T-L; parameters: species or system nude mice; conditions: A549 tumors, 1 mpk i.p., 2 h after last injection
[9] = biological target: tumor CT-L activity of the proteasome (Homo sapiens, UniProt P20618+P28074); assay: Proteasome activity in A549 tumor lysates after in vivo treatment, CT-L; parameters: species or system nude mice; conditions: A549 tumors, 1 mpk i.p., 2 h after last injection
[10] = tested on: primary multiple myeloma cells from patients' bone marrow; assay: Cell death of primary MM cells; format: cell-based, human; conditions: read-out: IC50 Cell Death
[11] = tested on: p27^Kip1 levels in A549 lung cancer cells; assay: Western blot of p27Kip1 in cultured A549 cells; format: cell-based, human; conditions: 48 h
[12] = tested on: MCF-7/MCF-10A, T80-Hras/T80, C7-Kras/C7 cells; assay: TUNEL apoptosis assay in 3 pairs of cell lines; format: cell-based, human; conditions: 24 h
[13] = Tolerability in treated mice; format: in vivo; conditions: mice treated with PI-083
[14] = tested on: MCF-10A immortalized non-transformed breast cells; assay: MTT cell viability assay; format: cell-based, human
[15] = biological target: PGPH activity of purified 20S proteasome (Oryctolagus cuniculus, UniProt G1T235); assay: Proteolytic activity of purified 20S proteasome, PGPH; format: biochemical, rabbit; conditions: read-out: IC50 PGPH, in vitro
Sequence of PGPH activity of purified 20S proteasome (G1T235 96-265): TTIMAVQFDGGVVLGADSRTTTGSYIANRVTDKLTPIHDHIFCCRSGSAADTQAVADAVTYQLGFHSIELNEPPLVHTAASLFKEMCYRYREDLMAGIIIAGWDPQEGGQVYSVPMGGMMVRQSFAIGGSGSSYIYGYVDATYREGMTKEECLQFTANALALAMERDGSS

[16] = tested on: RPMI-8226 multiple myeloma cells; assay: MTT cell viability assay; format: cell-based, human; conditions: read-out: IC50 cell viability (MTT)
[17] = tested on: A549 lung cancer cells; assay: MTT cell viability assay; format: cell-based, human; conditions: read-out: IC50 cell viability (MTT)
[18] = tested on: MCF-7/MCF-10A, T80-Hras/T80, C7-Kras/C7 cells; assay: Cell death by Trypan Blue exclusion in 3 pairs of cell lines; format: cell-based, human; conditions: 24 h, Fig. 4
[19] = biological target: hepatic CT-L, T-L, and PGPH activities (Mus musculus, UniProt O09061+O55234+P70195+Q60692); format: in vivo, nude mice; conditions: livers of A549 tumor-bearing mice, 1 mpk i.p., 2 h after last injection
[20] = tested on: U266 multiple myeloma cells; assay: MTT cell viability assay; format: cell-based, human; conditions: read-out: IC50 cell viability (MTT)
[21] = biological target: T1, CT-L activity of the proteasome in primary multiple myeloma cells (Homo sapiens, UniProt P20618+P28074); assay: CT-L activity in primary MM cells from patients' bone marrow; format: cell-based; conditions: read-out: IC50 CT-L Activity
T1 sequence (P28074 60-263): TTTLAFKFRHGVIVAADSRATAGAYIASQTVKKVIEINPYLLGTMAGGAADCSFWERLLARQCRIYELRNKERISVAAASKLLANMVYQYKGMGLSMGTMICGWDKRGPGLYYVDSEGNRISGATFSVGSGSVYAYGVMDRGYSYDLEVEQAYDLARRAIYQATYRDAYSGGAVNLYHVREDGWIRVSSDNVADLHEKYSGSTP
T1 sequence (P20618 29-241): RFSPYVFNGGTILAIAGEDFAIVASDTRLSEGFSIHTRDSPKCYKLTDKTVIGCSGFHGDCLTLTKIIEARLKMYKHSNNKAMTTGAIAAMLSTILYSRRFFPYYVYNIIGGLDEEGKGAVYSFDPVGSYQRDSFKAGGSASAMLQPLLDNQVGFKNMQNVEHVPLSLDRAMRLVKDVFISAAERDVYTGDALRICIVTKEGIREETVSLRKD

[22] = tested on: MCF-7/MCF-10A, T80-Hras/T80, C7-Kras/C7 cells; assay: Proliferation by Trypan Blue cell counting in 3 pairs of cell lines; format: cell-based, human; conditions: 24 h, Fig. 3
[23] = tested on: LNCaP prostate cancer cells; assay: MTT cell viability assay; format: cell-based, human
[24] = tested on: primary multiple myeloma cells from patients' bone marrow; assay: Viability of primary MM cells; format: cell-based, human; conditions: read-out: IC50 Viability
[25] = tested on: CaLu-1 lung cancer cells; assay: MTT cell viability assay; format: cell-based, human; conditions: read-out: IC50 cell viability (MTT)
[26] = tested on: DU-145 prostate cancer cells; assay: MTT cell viability assay; format: cell-based, human; conditions: read-out: IC50 cell viability (MTT)
[27] = tested on: MCF-7 breast cancer cells; assay: MTT cell viability assay; format: cell-based, human; conditions: read-out: IC50 cell viability (MTT)
[28] = biological target: T-L activity of purified 20S proteasome (Oryctolagus cuniculus, UniProt G1SWK8); assay: Proteolytic activity of purified 20S proteasome, T-L; format: biochemical, rabbit; conditions: read-out: IC50 T-L, in vitro
Sequence of T-L activity of purified 20S proteasome (G1SWK8 44-271): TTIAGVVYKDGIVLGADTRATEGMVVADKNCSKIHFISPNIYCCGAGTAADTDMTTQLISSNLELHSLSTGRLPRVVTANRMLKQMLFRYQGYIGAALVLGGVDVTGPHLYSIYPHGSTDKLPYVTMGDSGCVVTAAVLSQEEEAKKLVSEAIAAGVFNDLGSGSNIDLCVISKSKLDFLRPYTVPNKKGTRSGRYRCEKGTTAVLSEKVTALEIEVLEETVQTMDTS

[29] = biological target: CT-L activity in MCF-7/MCF-10A, T80-Hras/T80, C7-Kras/C7 cells (Homo sapiens, UniProt P20618+P28074); format: cell-based; conditions: 24 h, 3 pairs of cell lines, Fig. 2
[30] = tested on: C7-Kras (HPDE6-C7K-ras) pancreatic cells; assay: MTT cell viability assay; format: cell-based, human
[31] = tested on: C7 (HPDE6-C7) normal/immortalized pancreatic duct epithelial cells; assay: MTT cell viability assay; format: cell-based, human; conditions: read-out: IC50 cell viability (MTT)
[32] = Homo sapiens, Multiple myeloma cell, 24 h
[33] = read-out: IC50 cell viability (MTT), 24 h
[34] = read-out: IC50 cell viability (MTT), 72 h

## CC(C)C[C@H](NC(=O)[C@H](Cc1ccccc1)NC(=O)c1cnccn1)B(O)O [Bortezomib]
[1]; [32]
  IC50: > 10 µM
[1]; patient 1, 24 h
  IC50: > 10 µM
[1]; patient 2, 24 h
  IC50: > 10 µM
[1]; patient 3, 24 h
  IC50: > 10 µM
[1]; patient 5, 24 h
  IC50: > 10 µM
[1]; patient 6, 24 h
  IC50: > 10 µM
[1]; patient 7, 24 h
  IC50: > 10 µM
[1]; patient 8, 24 h
  IC50: > 10 µM
[1]; patient 9, 24 h
  IC50: > 10 µM
[1]; patient 10, 24 h
  IC50: > 10 µM
[2]; Homo sapiens, 24 h
  IC50: > 30 µM
[2]; Homo sapiens, 72 h
  IC50: 0.024 ± 0.01 µM
[3]
  average tumor size: 864 ± 207 mm^3
[4]
  IC50: > 30 µM
[5]
  inhibition of tumor PGPH activity vs vehicle-treated controls: 68%
[6]
  antitumor effect (in words): ineffective
  average tumor size: 1,448 ± 145 mm^3
[7]; CT-L, Bortezomib vs PI-083
  difference in potency between Bortezomib and PI-083: 100 fold
[8]
  inhibition of tumor T-L activity vs vehicle-treated controls: 0%
[9]
  inhibition of tumor CT-L activity vs vehicle-treated controls: 70%
[10]; [32]
  IC50: > 10 µM
[10]; patient 1, 24 h
  IC50: > 10 µM
[10]; patient 2, 24 h
  IC50: > 10 µM
[10]; patient 3, 24 h
  IC50: > 10 µM
[10]; patient 5, 24 h
  IC50: > 10 µM
[10]; patient 6, 24 h
  IC50: > 10 µM
[10]; patient 7, 24 h
  IC50: > 10 µM
[10]; patient 8, 24 h
  IC50: > 10 µM
[10]; patient 9, 24 h
  IC50: > 10 µM
[10]; patient 10, 24 h
  IC50: > 10 µM
[11]
  p27^Kip1 levels: marked increase
[12]; any of the 6 cell lines
  apoptosis (TUNEL): induced little apoptosis

## O=C1C(Cl)=C(Nc2ccc(S(=O)(=O)Nc3ccccn3)cc2)C(=O)c2ccccc21 [PI-083]
[13]
  weight, appetite, activity of treated mice: no weight loss, change in appetite or activity
[14]; [33]
  IC50: 17 ± 0.86 µM
[14]; [34]
  IC50: 4.2 ± 2.1 µM
[1]; patient 1, 24 h
  IC50: 5 µM
[1]; patient 2, 24 h
  IC50: 2.9 µM
[1]; patient 4, 24 h
  IC50: 1.3 µM
[1]; patient 5, 24 h
  IC50: 2.2 µM
[1]; patient 6, 24 h
  IC50: 2.2 µM
[1]; patient 10, 24 h
  IC50: 10 µM
[2]; T80-Hras, 24 h
  IC50: 1.5 ± 0.57 µM
[2]; T80-Hras, 72 h
  IC50: 2.1 ± 0.4 µM
[15]
  IC50: 4.5 ± 1.2 µM
[3]
  tumor growth inhibition: 54%
  average tumor size: about 511 ± 134 mm^3
[16]; RPMI-8226, 24 h
  IC50: 7.4 ± 0.38 µM
[16]; RPMI-8226, 72 h
  IC50: 10 ± 4 µM
[17]; A549, 24 h
  IC50: 41 ± 17 µM
[17]; A549, 72 h
  IC50: 11 ± 6.7 µM
[18]
  cell death, cancer vs non-transformed cells: much more effective in increasing cell death in all 3 cancer cell lines over their non-transformed counterparts
[19]
  effect on liver proteasome activities (CT-L, T-L, PGPH): did not inhibit
[20]; U266, 24 h
  IC50: 23 ± 1.7 µM
[20]; U266, 72 h
  IC50: 7 ± 1.5 µM
[5]
  inhibition of tumor PGPH activity vs vehicle-treated controls: 34%
[21]; patient 3, 24 h
  IC50: 1.4 µM
[21]; patient 6, 24 h
  IC50: 1.2 µM
[21]; patient 9, 24 h
  IC50: 1.8 µM
[22]
  inhibition of proliferation, cancer vs non-transformed cells: more potently than their non-transformed
[23]; [33]
  IC50: 14 ± 2.8 µM
[23]; [34]
  IC50: 5.2 ± 1.1 µM
[24]; patient 2, 24 h
  IC50: > 10 µM
[24]; patient 3, 24 h
  IC50: > 10 µM
[24]; patient 4, 24 h
  IC50: 2.2 µM
[24]; patient 4, 72 h
  IC50: 2.2 µM
[24]; patient 5, 24 h
  IC50: 3.4 µM
[24]; patient 6, 72 h
  IC50: 1.4 µM
[24]; patient 7, 24 h
  IC50: 1.8 µM
[24]; patient 7, 48 h
  IC50: 1.4 µM
[24]; patient 7, 72 h
  IC50: 1.3 µM
[24]; patient 8, 24 h
  IC50: 2 µM
[24]; patient 8, 72 h
  IC50: 1.8 µM
[24]; patient 9, 24 h
  IC50: 1.4 µM
[24]; patient 10, 24 h
  IC50: > 10 µM
[25]; CaLu-1, 24 h
  IC50: 7.3 ± 0.43 µM
[25]; CaLu-1, 72 h
  IC50: 4.9 ± 1.2 µM
[6]
  tumor growth inhibition: 84%
  average tumor size: about 396 ± 137 mm^3
[7]; read-out: IC50 CT-L, purified 20S proteasome, in vitro
  IC50: 1 ± 0.63 µM
[26]; DU-145, 24 h
  IC50: 8.6 ± 0.63 µM
[26]; DU-145, 72 h
  IC50: 5 ± 0.72 µM
[8]
  inhibition of tumor T-L activity vs vehicle-treated controls: 12%
[9]
  inhibition of tumor CT-L activity vs vehicle-treated controls: 43%
[10]; patient 5, 24 h
  IC50: 1.1 µM
[10]; patient 10, 24 h
  IC50: 9 µM
[11]
  p27^Kip1 levels: marked increase
[27]; MCF-7, 24 h
  IC50: 4.5 ± 0.82 µM
[27]; MCF-7, 72 h
  IC50: 2.2 ± 1.1 µM
[28]
  IC50: 4.5 ± 1.4 µM
[29]
  selectivity of CT-L inhibition, tumor vs non-transformed cells: inhibited more selectively the CT-L activity in tumor over non-transformed cells
[30]; [33]
  IC50: 2.4 ± 0.23 µM
[30]; [34]
  IC50: 1.9 ± 0.2 µM
[12]; T80 cells
  apoptosis (TUNEL): induced very little apoptosis
[12]; cancer cell lines MCF-7, T80-Hras and C7-Kras
  apoptosis (TUNEL): induced apoptosis in all 3 cancer cell lines
[12]; non-transformed MCF-10A and C7
  apoptosis (TUNEL): did not induce apoptosis
[31]; C7, 24 h
  IC50: 5.1 ± 0.53 µM
[31]; C7, 72 h
  IC50: 4.2 ± 1.6 µM
